# Measurements reported in patent publication US12371454B2, “Cyclic peptide compound having Kras inhibitory action” (priority 2019, dated 2025).
# Starred links: 1 amine or outer side, 2 acyl side, 3 side chain; linkers in the order of their positions; H or OH if unused. Positions of bridges follow the written chain, without caps; N, C: chain ends. Non-standard residues stand in square brackets, D forms with d. Residues, ends and D or L forms follow the SMILES beside them. *: point of attachment. hPhe(3-Cl-4-CF3) = N[C@@H](CCc1ccc(C(F)(F)F)c(Cl)c1)C(=O)O; hPhe(3-F,4-CF3) = N[C@@H](CCc1ccc(C(F)(F)F)c(F)c1)C(=O)O; X29 = N#Cc1cc(CC[C@H](N[*:1])C(=O)[*:2])cc(Cl)c1Cl; NMePhe(2-CF3) = CN[C@@H](Cc1ccccc1C(F)(F)F)C(=O)O; hPhe(4-CF3) = N[C@@H](CCc1ccc(C(F)(F)F)cc1)C(=O)O; NEtPhe(4-Me) = CCN[C@@H](Cc1ccc(C)cc1)C(=O)O; NMePhe(4-Cl) = CN[C@@H](Cc1ccc(Cl)cc1)C(=O)O; NMePhe(4-Me) = CN[C@@H](Cc1ccc(C)cc1)C(=O)O; NMePhe(2-Cl) = CN[C@@H](Cc1ccccc1Cl)C(=O)O; NMePhe(4-F) = CN[C@@H](Cc1ccc(F)cc1)C(=O)O; NMeAla(cPent) = CN[C@@H](CC1CCCC1)C(=O)O; NMeGly(cPent) = CN[C@H](C(=O)O)C1CCCC1; Phe(3-I) = N[C@@H](Cc1cccc(I)c1)C(=O)O; NMehPhe = CN[C@@H](CCc1ccccc1)C(=O)O; NMe4Pal = CN[C@@H](Cc1ccncc1)C(=O)O; NMeCha = CN[C@@H](CC1CCCCC1)C(=O)O; NMeChg = CN[C@H](C(=O)O)C1CCCCC1; NMeI = CC[C@H](C)[C@H](NC)C(=O)O; NMeD = CN[C@@H](CC(=O)O)C(=O)O; NMeL = CN[C@@H](CC(C)C)C(=O)O; NMeNva = CCC[C@H](NC)C(=O)O; NMeV = CN[C@H](C(=O)O)C(C)C; d(β3hA) = C[C@@H](N)CC(=O)O; Morpholide = C1CN(*)CCO1; NMeA = CN[C@@H](C)C(=O)O; Nle = CCCC[C@H](N)C(=O)O; Piperidide = C1CCN(*)CC1; Pyrrolidide = C1CCN(*)C1; Ac5c = NC1(C(=O)O)CCCC1; Aze = O=C(O)[C@@H]1CCN1; Sar = CNCC(=O)O
# How the values were obtained:
# [1] = molecular target: T1, Kras and SOS1 (biotin-tagged human Kras loaded with GDP, His-tagged human SOS1) (Homo sapiens, UniProt P01116, G12D); assay: Protein-protein interaction inhibition between Kras and SOS1 (KrasGl2D-SOS PPI) using AlphaScreen; format: binding; settings: AlphaScreen; biotin-tagged human Kras loaded with GDP, His-tagged human SOS1; read-out: KRAS G12D-SOS PPI IC50
# T1 construct: made in house; host or cells: E. coli (stated for Kras only)
# In short: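 Kras was produced in E. coli, purified, then loaded with GDP. It was paired via streptavidin acceptor beads with His-SOS1 held on nickel donor beads, and proximity signal at 520-620 nm was read after 680 nm illumination.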
# [2] = test system: Human pancreatic cancer cell line AsPC-1; assay: Measurement of AsPC-1 cell growth inhibition (AsPC-1 CGI); format: cell-based; settings: 96 h
# In short: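 AsPC-1 cells in 15% FBS RPMI-1640 were exposed to test compound for 96 hours at 37° C, with CellTiter-Glo as endpoint.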
# T1 sequence (P01116 1-188 isoform P01116-2 G12D): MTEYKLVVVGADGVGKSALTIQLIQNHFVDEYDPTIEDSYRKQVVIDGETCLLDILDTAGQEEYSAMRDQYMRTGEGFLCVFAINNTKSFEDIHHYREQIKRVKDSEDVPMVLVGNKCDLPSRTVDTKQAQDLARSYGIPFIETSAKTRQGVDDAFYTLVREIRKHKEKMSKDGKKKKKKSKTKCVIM
Compound,IC50 [1] [nM],IC50 [2] [nM]
CC[C@H](C)[C@@H]1NC(=O)[C@H](CC(C)C)N(C)C(=O)C[C@@H](C(=O)N2CCCCC2)N(C)C(=O)[C@H](C(C)C)N(C)C(=O)C2(CCCC2)NC(=O)[C@@H]2CCCN2C(=O)[C@H](CCc2ccc(C(F)(F)F)c(Cl)c2)NC(=O)CN(C)C(=O)[C@H](CC(C)C)N(C)C(=O)[C@@H]2CCN2C(=O)[C@H](C)N(C)C1=O [Compound 1803] ([NMeL]I[NMeA][Aze][NMeL][Sar][hPhe(3-Cl-4-CF3)]P[Ac5c][NMeV][NMeD]-Piperidide; lactam N-11),5.3,100 to 500
CC[C@H](C)[C@@H]1NC(=O)[C@H](C)N(C)C(=O)C[C@@H](C(=O)N2CCCCC2)N(C)C(=O)[C@H](C(C)C)N(C)C(=O)C2(CCCC2)NC(=O)[C@@H]2CCCN2C(=O)[C@H](CCc2cc(Cl)c(Cl)c(C#N)c2)NC(=O)CN(C)C(=O)[C@H](CC2CCCCC2)N(C)C(=O)CN(C)C(=O)CN(C)C1=O [Compound 2071] ([NMeA]I[Sar][Sar][NMeCha][Sar][X29]P[Ac5c][NMeV][NMeD]-Piperidide; lactam N-11),9.2,> 500
CC[C@H](C)[C@@H]1NC(=O)[C@H](CC(C)C)N(C)C(=O)C[C@@H](C(=O)N2CCCCC2)N(C)C(=O)[C@H]([C@@H](C)CC)N(C)C(=O)C2(CCCC2)NC(=O)[C@@H]2CCCN2C(=O)[C@H](CCc2ccc(C(F)(F)F)c(Cl)c2)NC(=O)CN(C)C(=O)[C@H](CC2CCCCC2)N(C)C(=O)CN(C)C(=O)CN(C)C1=O [Compound 311] ([NMeL]I[Sar][Sar][NMeCha][Sar][hPhe(3-Cl-4-CF3)]P[Ac5c][NMeI][NMeD]-Piperidide; lactam N-11),5.9,20 to 50
"CC[C@H](C)[C@@H]1NC(=O)[C@H](CC(C)C)N(C)C(=O)C[C@@H](C(=O)N2CCCC2)N(C)C(=O)[C@H](C(C)C)N(C)C(=O)C2(CCCC2)NC(=O)[C@@H]2CCCN2C(=O)[C@H](CCc2ccc(C(F)(F)F)c(F)c2)NC(=O)CN(C)C(=O)[C@H](CC2CCCCC2)N(C)C(=O)CN(C)C(=O)CN(C)C1=O [Compound 804] ([NMeL]I[Sar][Sar][NMeCha][Sar][hPhe(3-F,4-CF3)]P[Ac5c][NMeV][NMeD]-Pyrrolidide; lactam N-11)",0.99,100 to 500
CC[C@H](C)[C@@H]1NC(=O)[C@H](CC(C)C)N(C)C(=O)C[C@@H](C(=O)N2CCCCC2)N(C)C(=O)[C@H](C(C)C)N(C)C(=O)C2(CCCC2)NC(=O)[C@@H]2CCCN2C(=O)[C@H](CCc2ccc(C(F)(F)F)cc2)NC(=O)CN(C)C(=O)[C@H](CC2CCCCC2)N(C)C(=O)CN(C)C(=O)CN(C)C1=O [Compound 108] ([NMeL]I[Sar][Sar][NMeCha][Sar][hPhe(4-CF3)]P[Ac5c][NMeV][NMeD]-Piperidide; lactam N-11),5,100 to 500
CC[C@H](C)[C@@H]1NC(=O)[C@H](CC(C)C)N(C)C(=O)C[C@@H](C(=O)N2CCCCC2)N(C)C(=O)[C@H](C(C)C)N(C)C(=O)C2(CCCC2)NC(=O)[C@@H]2CCCN2C(=O)[C@H](CCc2ccc(C(F)(F)F)c(Cl)c2)NC(=O)CN(C)C(=O)[C@H](CC2CCCCC2)N(C)C(=O)CN(C)C(=O)CN(C)C1=O [Compound 438] ([NMeL]I[Sar][Sar][NMeCha][Sar][hPhe(3-Cl-4-CF3)]P[Ac5c][NMeV][NMeD]-Piperidide; lactam N-11),6,50 to 100
CC[C@H](C)[C@@H]1NC(=O)[C@H](CC(C)C)N(C)C(=O)C[C@@H](C(=O)N(C)C)N(C)C(=O)[C@H]([C@@H](C)CC)N(C)C(=O)C2(CCCC2)NC(=O)[C@H](Cc2ccc(C)cc2)N(C)C(=O)[C@H](CCc2ccc(C(F)(F)F)c(Cl)c2)NC(=O)CN(C)C(=O)[C@H](Cc2ccc(C)cc2)N(C)C(=O)[C@@H]2CCN2C(=O)[C@H](C)N(C)C1=O [Compound 340] ([NMeL]I[NMeA][Aze][NMePhe(4-Me)][Sar][hPhe(3-Cl-4-CF3)][NMePhe(4-Me)][Ac5c][NMeI][NMeD]-NMe2; lactam N-11),4.7,20 to 50
CC[C@H](C)[C@@H]1NC(=O)[C@H](CC(C)C)N(C)C(=O)C[C@@H](C(=O)N2CCCCC2)N(C)C(=O)[C@H](C(C)C)N(C)C(=O)C2(CCCC2)NC(=O)[C@@H]2CCCN2C(=O)[C@H](CCc2ccc(C(F)(F)F)c(Cl)c2)NC(=O)CN(C)C(=O)[C@H](CCc2ccccc2)N(C)C(=O)CN(C)C(=O)CN(C)C1=O [Compound 1608] ([NMeL]I[Sar][Sar][NMehPhe][Sar][hPhe(3-Cl-4-CF3)]P[Ac5c][NMeV][NMeD]-Piperidide; lactam N-11),5.8,100 to 500
CCC[C@H]1C(=O)N[C@@H]([C@@H](C)CC)C(=O)N(C)CC(=O)N(C)CC(=O)N(C)[C@@H](CC2CCCCC2)C(=O)N(C)CC(=O)N[C@@H](CCc2ccc(C(F)(F)F)c(Cl)c2)C(=O)N2CCC[C@H]2C(=O)NC2(CCCC2)C(=O)N(C)[C@@H](C2CCCCC2)C(=O)N(C)[C@H](C(=O)N2CCOCC2)CC(=O)N1C [Compound 1996] ([NMeNva]I[Sar][Sar][NMeCha][Sar][hPhe(3-Cl-4-CF3)]P[Ac5c][NMeChg][NMeD]-Morpholide; lactam N-11),0.64,20 to 50
CCCC[C@@H]1NC(=O)[C@H](Cc2cccc(I)c2)NC(=O)CN(C)C(=O)[C@H](Cc2ccc(Cl)cc2)N(C)C(=O)CN(C)C(=O)CN(C)C(=O)[C@H]([C@@H](C)CC)NC(=O)[C@H](CC(C)C)N(C)C(=O)C[C@@H](C(=O)N2CCCCC2)N(C)C(=O)[C@H](CC(C)C)NC(=O)[C@H](Cc2ccc(F)cc2)N(C)C1=O [Compound 997] ([NMeL]I[Sar][Sar][NMePhe(4-Cl)][Sar][Phe(3-I)][Nle][NMePhe(4-F)]L[NMeD]-Piperidide; lactam N-11),24,100 to 500
CC[C@H](C)[C@@H]1NC(=O)[C@H](CC(C)C)N(C)C(=O)C[C@@H](C(=O)N2CCCCC2)N(C)C(=O)[C@H](C(C)C)N(C)C(=O)C2(CCCC2)NC(=O)[C@@H]2CCCN2C(=O)[C@H](CCc2ccc(C(F)(F)F)c(Cl)c2)NC(=O)CN(C)C(=O)[C@H](Cc2ccccc2Cl)N(C)C(=O)CN(C)C(=O)CN(C)C1=O [Compound 1636] ([NMeL]I[Sar][Sar][NMePhe(2-Cl)][Sar][hPhe(3-Cl-4-CF3)]P[Ac5c][NMeV][NMeD]-Piperidide; lactam N-11),11,100 to 500
CC[C@H](C)[C@@H]1NC(=O)[C@H](C2CCCCC2)N(C)C(=O)C[C@@H](C)NC(=O)[C@H](C(C)C)N(C)C(=O)C2(CCCC2)NC(=O)[C@@H]2CCCN2C(=O)[C@H](CCc2ccc(C(F)(F)F)c(Cl)c2)NC(=O)CN(C)C(=O)[C@H](CC2CCCCC2)N(C)C(=O)CN(C)C(=O)CN(C)C1=O [Compound 456] (cyclo([Ac5c][NMeV][d(β3hA)][NMeChg]I[Sar][Sar][NMeCha][Sar][hPhe(3-Cl-4-CF3)]P)),34,100 to 500
CC[C@H](C)[C@@H]1NC(=O)[C@H](CC(C)C)N(C)C(=O)C[C@@H](C)NC(=O)[C@H](C2CCCC2)N(C)C(=O)C2(CCCC2)NC(=O)[C@@H]2CCCN2C(=O)[C@H](CCc2ccc(C(F)(F)F)c(Cl)c2)NC(=O)CN(C)C(=O)[C@H](Cc2ccc(C)cc2)N(CC)C(=O)[C@@H]2CCN2C(=O)[C@H](C)N(C)C1=O [Compound 1714] (cyclo([Ac5c][NMeGly(cPent)][d(β3hA)][NMeL]I[NMeA][Aze][NEtPhe(4-Me)][Sar][hPhe(3-Cl-4-CF3)]P)),2.3,50 to 100
CC[C@H](C)[C@@H]1NC(=O)[C@H](CC(C)C)N(C)C(=O)C[C@@H](C(=O)N2CCCCC2)N(C)C(=O)[C@H](C(C)C)N(C)C(=O)C2(CCCC2)NC(=O)[C@@H]2CCCN2C(=O)[C@H](CCc2ccc(C(F)(F)F)c(Cl)c2)NC(=O)CN(C)C(=O)[C@H](Cc2ccccc2C(F)(F)F)N(C)C(=O)CN(C)C(=O)CN(C)C1=O [Compound 1579] ([NMeL]I[Sar][Sar][NMePhe(2-CF3)][Sar][hPhe(3-Cl-4-CF3)]P[Ac5c][NMeV][NMeD]-Piperidide; lactam N-11),8.2,100 to 500
CCC[C@H]1C(=O)N[C@@H]([C@@H](C)CC)C(=O)N(C)CC(=O)N(C)CC(=O)N(C)[C@@H](CC2CCCC2)C(=O)N(C)CC(=O)N[C@@H](CCc2ccc(C(F)(F)F)c(Cl)c2)C(=O)N2CCC[C@H]2C(=O)NC2(CCCC2)C(=O)N(C)[C@@H](C2CCCCC2)C(=O)N(C)[C@H](C(=O)N2CCCC2)CC(=O)N1C [Compound 1975] ([NMeNva]I[Sar][Sar][NMeAla(cPent)][Sar][hPhe(3-Cl-4-CF3)]P[Ac5c][NMeChg][NMeD]-Pyrrolidide; lactam N-11),0.51,50 to 100
CC[C@H](C)[C@@H]1NC(=O)[C@H](CC(C)C)N(C)C(=O)C[C@@H](C(=O)N(C)C)N(C)C(=O)[C@H](C2CCCC2)N(C)C(=O)C2(CCCC2)NC(=O)[C@H](Cc2ccncc2)N(C)C(=O)[C@H](CCc2ccc(C(F)(F)F)c(Cl)c2)NC(=O)CN(C)C(=O)[C@H](CC2CCCCC2)N(C)C(=O)[C@@H]2CCN2C(=O)[C@H](C)N(C)C1=O [Compound 1913] ([NMeL]I[NMeA][Aze][NMeCha][Sar][hPhe(3-Cl-4-CF3)][NMe4Pal][Ac5c][NMeGly(cPent)][NMeD]-NMe2; lactam N-11),1.1,100 to 500
